Numbered stars: 1 amine (or outer) side, 2 acyl side, 3 side chain; on linkers, the order of the positions; unused ones are H or OH. Bridge positions count the residues as written; N and C are the ends. Square brackets hold non-standard residues; d marks the D form. Side chains are listed from the residue outwards. Peptide text beside a SMILES is read from it. I, II: the chains in the order shown. * marks the point of attachment. ξ: configuration not given here. DOTA = O=C(O)CN1CCN(CC(=O)O)CCN(CC(=O)*)CCN(CC(=O)O)CC1; Trp(7-OMe) = COc1cccc2c(C[C@H](N)C(=O)O)c[nH]c12; Trp(7-Me) = Cc1cccc2c(C[C@H](N)C(=O)O)c[nH]c12; γGlu = O=C(O)[C@H](CCC(=O)[*:2])N[*:1]; 2Nal = N[C@@H](Cc1ccc2ccccc2c1)C(=O)O; C12 diacid = O=C(O)CCCCCCCCCCC(=O)*; Palmitoyl = CCCCCCCCCCCCCCCC(=O)*; NMeL = CN[C@@H](CC(C)C)C(=O)O; NMeK = CN[C@@H](CCCCN)C(=O)O; Lauroyl = CCCCCCCCCCCC(=O)*; CH2 = C([*:1])[*:2]; ξP = O=C(O)C1CCCN1
biological target: T1, human DLL3 (Homo sapiens, UniProt Q9NYJ7); assay: Affinity determination by Surface Plasmon Resonance (SPR); assay type: binding; details: 25° C., biotinylated human DLL3 immobilized on streptavidin sensor chip, 1:1 binding model; read-out: SPR KD
T1 sequence (Q9NYJ7 27-618): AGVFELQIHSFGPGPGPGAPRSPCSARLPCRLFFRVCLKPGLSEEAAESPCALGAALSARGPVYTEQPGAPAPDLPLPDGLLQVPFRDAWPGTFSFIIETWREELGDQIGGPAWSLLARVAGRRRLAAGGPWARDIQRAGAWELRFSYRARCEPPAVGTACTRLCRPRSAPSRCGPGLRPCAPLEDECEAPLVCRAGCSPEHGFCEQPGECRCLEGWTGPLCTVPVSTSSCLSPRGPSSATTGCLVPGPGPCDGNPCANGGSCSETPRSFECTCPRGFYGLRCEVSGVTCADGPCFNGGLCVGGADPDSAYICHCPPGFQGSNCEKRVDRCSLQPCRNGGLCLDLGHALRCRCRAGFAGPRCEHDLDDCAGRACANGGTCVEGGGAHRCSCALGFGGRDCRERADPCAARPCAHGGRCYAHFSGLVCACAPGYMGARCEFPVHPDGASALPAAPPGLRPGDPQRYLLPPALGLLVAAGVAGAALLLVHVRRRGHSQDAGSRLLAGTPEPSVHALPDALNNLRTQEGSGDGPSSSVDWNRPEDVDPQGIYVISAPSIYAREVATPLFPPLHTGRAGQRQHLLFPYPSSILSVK
Procedure, shortened: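 Kinetic and affinity constants were derived by fitting sensorgrams to a 1:1 binding model. Graded compound concentrations flowed at 100 μL/minute in 20 mM phosphate running buffer with 2% DMSO over streptavidin-immobilized biotinylated human DLL3, reference-subtracted.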

Row | Structure (SMILES) | Kd [nM]
1 | CC[C@H](C)[C@H](NC(=O)[C@@H](NC(=O)[C@H](Cc1c[nH]c2ccccc12)NC(C)=O)[C@@H](C)O)C(=O)N[C@H]1CSSC[C@@H](C(=O)N[C@@H](Cc2c[nH]c3c(OC)cccc23)C(=O)N2CCC[C@H]2C(=O)N[C@H](CCCCNC(=O)CN2CCN(CC(=O)O)CCN(CC(=O)O)CCN(CC(=O)O)CC2)C(N)=O)NC(=O)[C@H](CC(=O)O)NC(=O)[C@H](Cc2cnc[nH]2)NC(=O)[C@H](Cc2c[nH]c3ccccc23)NC(=O)[C@H](CC(N)=O)NC(=O)[C@H](CC(N)=O)NC1=O [compound 299, Ac-W-T-I-C(3)-N-N-W-H-D-C(3)-(7-MeO-W)-P-[D-Lys(DOTA)]-NH2] (Ac-WTICNNWHDC[Trp(7-OMe)]P[dK](DOTA)-NH2; disulfide 4-10) | < 1
2 | CC[C@H](C)[C@H](NC(=O)[C@@H](NC(=O)[C@H](Cc1c[nH]c2ccccc12)NC(C)=O)[C@@H](C)O)C(=O)N[C@H]1CSCSC[C@@H](C(=O)N[C@@H](Cc2c[nH]c3ccccc23)C(=O)N2CCCC2C(=O)N[C@@H](CCCCNC(=O)CN2CCN(CC(=O)O)CCN(CC(=O)O)CCN(CC(=O)O)CC2)C(N)=O)NC(=O)[C@H](CC(=O)O)NC(=O)[C@H](Cc2cnc[nH]2)NC(=O)[C@H](Cc2ccc3ccccc3c2)NC(=O)[C@H](CC(N)=O)NC(=O)[C@H](CC(N)=O)NC1=O (stereo partly drawn) [compound 329, Ac-W-T-I-C(1)-N-N-(2Nal)-H-D-C(1)-W-P-[L-Lys(DOTA)]-NH2] (Ac-WTICNN[2Nal]HDCW[ξP]K(DOTA)-NH2; linker 4-10 via CH2) | < 1
3 | CC[C@H](C)[C@H](NC(=O)[C@@H](NC(=O)[C@H](Cc1c[nH]c2c(C)cccc12)NC(C)=O)[C@@H](C)O)C(=O)N[C@H]1CSCSC[C@@H](C(=O)N[C@@H](Cc2c[nH]c3ccccc23)C(=O)N2CCCC2C(=O)N[C@H](CCCCNC(=O)CN2CCN(CC(=O)O)CCN(CC(=O)O)CCN(CC(=O)O)CC2)C(N)=O)NC(=O)[C@H](CC(=O)O)NC(=O)[C@H](Cc2cnc[nH]2)NC(=O)[C@H](Cc2ccc3ccccc3c2)NC(=O)[C@H](CC(N)=O)NC(=O)[C@H](CC(N)=O)NC1=O (stereo partly drawn) [compound 330, Ac-7MeW-T-I-C(1)-N-N-(2Nal)-H-D-C(1)-W-P-[D-Lys(DOTA)]-NH2] (Ac-[Trp(7-Me)]TICNN[2Nal]HDCW[ξP][dK](DOTA)-NH2; linker 4-10 via CH2) | < 1
4 | CC[C@H](C)[C@H](NC(=O)[C@@H](NC(=O)[C@H](Cc1c[nH]c2c(OC)cccc12)NC(C)=O)[C@@H](C)O)C(=O)N[C@H]1CSSC[C@@H](C(=O)N[C@@H](Cc2c[nH]c3ccccc23)C(=O)N2CCC[C@H]2C(=O)N[C@H](CCCCNC(=O)CN2CCN(CC(=O)O)CCN(CC(=O)O)CCN(CC(=O)O)CC2)C(N)=O)NC(=O)[C@H](CC(=O)O)NC(=O)[C@H](Cc2cnc[nH]2)NC(=O)[C@H](Cc2ccc3ccccc3c2)NC(=O)[C@H](CC(N)=O)NC(=O)[C@H](CC(N)=O)NC1=O [compound 344, Ac-(7MeO-Trp)-T-I-C(3)-N-N-W-H-D-C(3)-W-P-[D-Lys(DOTA)]-CONH2] (Ac-[Trp(7-OMe)]TICNN[2Nal]HDCWP[dK](DOTA)-NH2; disulfide 4-10) | < 1
5 | CC[C@H](C)[C@H](NC(=O)[C@@H](NC(=O)[C@H](Cc1c[nH]c2ccccc12)NC(C)=O)[C@@H](C)O)C(=O)N[C@H]1CSSC[C@@H](C(=O)N[C@@H](Cc2c[nH]c3ccccc23)C(=O)N(C)[C@@H](CC(C)C)C(=O)N[C@H](CCCCNC(=O)CN2CCN(CC(=O)O)CCN(CC(=O)O)CCN(CC(=O)O)CC2)C(N)=O)NC(=O)[C@H](CC(=O)O)NC(=O)[C@H](Cc2cnc[nH]2)NC(=O)[C@H](Cc2c[nH]c3ccccc23)NC(=O)[C@H](CC(N)=O)NC(=O)[C@H](CC(N)=O)NC1=O [compound 345, Ac-W-T-I-C(3)-N-N-W-H-D-C(3)-W-NmeL-[D-Lys(DOTA)]-NH2] (Ac-WTICNNWHDCW[NMeL][dK](DOTA)-NH2; disulfide 4-10) | 1 to 10
6 | CCCCCCCCCCCC(=O)NCCCC[C@H](NC(=O)[C@@H](NC(=O)[C@H](Cc1c[nH]c2ccccc12)NC(C)=O)[C@@H](C)O)C(=O)N[C@H]1CSSC[C@@H](C(=O)N[C@@H](Cc2c[nH]c3ccccc23)C(=O)N2CCC[C@H]2C(=O)N[C@H](CCCCNC(=O)CN2CCN(CC(=O)O)CCN(CC(=O)O)CCN(CC(=O)O)CC2)C(N)=O)NC(=O)[C@H](CC(=O)O)NC(=O)[C@H](Cc2cnc[nH]2)NC(=O)[C@H](Cc2c[nH]c3ccccc23)NC(=O)[C@H](CC(N)=O)NC(=O)[C@H](CC(N)=O)NC1=O [compound 346, Ac-W-T-K(C12)-C(3)-N-N-W-H-D-C(3)-W-P-[D-Lys(DOTA)]-NH2] (Ac-WTK(Lauroyl)CNNWHDCWP[dK](DOTA)-NH2; disulfide 4-10) | 10 to 100

Second part, the compound after the results:

Row | Kd [nM] | Structure (SMILES)
7 | 100 to 300 | CCCCCCCCCCCCCCCC(=O)NCCCC[C@H](NC(=O)[C@@H](NC(=O)[C@H](Cc1c[nH]c2ccccc12)NC(C)=O)[C@@H](C)O)C(=O)N[C@H]1CSSC[C@@H](C(=O)N[C@@H](Cc2c[nH]c3ccccc23)C(=O)N2CCC[C@H]2C(=O)N[C@H](CCCCNC(=O)CN2CCN(CC(=O)O)CCN(CC(=O)O)CCN(CC(=O)O)CC2)C(N)=O)NC(=O)[C@H](CC(=O)O)NC(=O)[C@H](Cc2cnc[nH]2)NC(=O)[C@H](Cc2c[nH]c3ccccc23)NC(=O)[C@H](CC(N)=O)NC(=O)[C@H](CC(N)=O)NC1=O [compound 348, Ac-W-T-K(C16)-C(3)-N-N-W-H-D-C(3)-W-P-[D-Lys(DOTA)]-NH2] (Ac-WTK(Palmitoyl)CNNWHDCWP[dK](DOTA)-NH2; disulfide 4-10)
8 | 1 to 10 | CC[C@H](C)[C@H](NC(=O)[C@@H](NC(=O)[C@H](Cc1c[nH]c2ccccc12)NC(=O)CCCCCCCCCCC(=O)O)[C@@H](C)O)C(=O)N[C@H]1CSSC[C@@H](C(=O)N[C@@H](Cc2c[nH]c3ccccc23)C(=O)N2CCC[C@H]2C(=O)N[C@H](CCCCNC(=O)CN2CCN(CC(=O)O)CCN(CC(=O)O)CCN(CC(=O)O)CC2)C(N)=O)NC(=O)[C@H](CC(=O)O)NC(=O)[C@H](Cc2cnc[nH]2)NC(=O)[C@H](Cc2c[nH]c3ccccc23)NC(=O)[C@H](CC(N)=O)NC(=O)[C@H](CC(N)=O)NC1=O [compound 349, C12OH-W-T-I-C(3)-N-N-W-H-D-C(3)-W-P-[D-Lys(DOTA)]-NH2] ({C12 diacid}-WTICNNWHDCWP[dK](DOTA)-NH2; disulfide 4-10)
9 | < 1 | CC[C@H](C)[C@H](NC(=O)[C@@H](NC(=O)[C@H](Cc1c[nH]c2ccccc12)NC(C)=O)[C@@H](C)O)C(=O)N[C@H]1CSSC[C@@H](C(=O)N[C@@H](Cc2c[nH]c3ccccc23)C(=O)N(C)[C@@H](CCCCNC(=O)CN2CCN(CC(=O)O)CCN(CC(=O)O)CCN(CC(=O)O)CC2)C(N)=O)NC(=O)[C@H](CC(=O)O)NC(=O)[C@H](Cc2cnc[nH]2)NC(=O)[C@H](Cc2ccc3ccccc3c2)NC(=O)[C@H](CC(N)=O)NC(=O)[C@H](CC(N)=O)NC1=O [compound 352, Ac-W-T-I-C(3)-N-N-(2Nal)-H-D-C(3)-W-[NmeK(DOTA)]-NH2] (Ac-WTICNN[2Nal]HDCW[NMeK](DOTA)-NH2; disulfide 4-10)
10 | < 1 | CC[C@H](C)[C@H](NC(=O)[C@@H](NC(=O)[C@H](Cc1c[nH]c2ccccc12)NC(C)=O)[C@@H](C)O)C(=O)N[C@H]1CSSC[C@@H](C(=O)N[C@@H](Cc2c[nH]c3ccccc23)C(=O)N2CCC[C@H]2C(=O)N[C@H](CCCCNC(=O)CNC(=O)[C@H](CO)NC(=O)CNC(=O)[C@H](CO)NC(=O)CNC(=O)[C@H](CO)NC(=O)CN2CCN(CC(=O)O)CCN(CC(=O)O)CCN(CC(=O)O)CC2)C(N)=O)NC(=O)[C@H](CC(=O)O)NC(=O)[C@H](Cc2cnc[nH]2)NC(=O)[C@H](Cc2ccc3ccccc3c2)NC(=O)[C@H](CC(N)=O)NC(=O)[C@H](CC(N)=O)NC1=O [compound 353, Ac-W-T-I-C(3)-N-N-(2Nal)-H-D-C(3)-W-P-[D-Lys(G-S-G-S-G-S-DOTA)]-NH2] (I: Ac-WTICNN[2Nal]HDCWP[dK]-NH2 / II: {DOTA}-SGSGSG; disulfide I:4-I:10; amide I:13-II:C)
11 | < 1 | CC[C@H](C)[C@H](NC(=O)[C@@H](NC(=O)[C@H](Cc1c[nH]c2ccccc12)NC(C)=O)[C@@H](C)O)C(=O)N[C@H]1CSSC[C@@H](C(=O)N[C@@H](Cc2c[nH]c3ccccc23)C(=O)N2CCC[C@H]2C(=O)N[C@H](CCCCNC(=O)CC[C@H](NC(=O)CN2CCN(CC(=O)O)CCN(CC(=O)O)CCN(CC(=O)O)CC2)C(=O)O)C(N)=O)NC(=O)[C@H](CC(=O)O)NC(=O)[C@H](Cc2cnc[nH]2)NC(=O)[C@H](Cc2ccc3ccccc3c2)NC(=O)[C@H](CC(N)=O)NC(=O)[C@H](CC(N)=O)NC1=O [compound 354, Ac-W-T-I-C(3)-N-N-(2Nal)-H-D-C(3)-W-P-[D-Lys(gE-DOTA)]-NH2] (Ac-WTICNN[2Nal]HDCWP[dK]([γGlu-DOTA])-NH2; disulfide 4-10)

— patent US20250011368A1, “DLL3 TARGETING PEPTIDES AND CONSTRUCTS THEREOF” (MARIANA ONCOLOGY INC., priority 2023, published 2025)
